# Results as given in PubChem BioAssay AID1963841 (Molecular Pharmacology Branch, DTP, NCI, 2024).
# System: 439559-082-T-J2-PDC spheroid viability
# Assay: Anticancer human tumor 439559-082-T-J2-PDC patient-derived colon adenocarcinoma cell line growth inhibition [POLQ]
# Conditions: spheroids with HUVEC and MSC; for IC50: curve of first compound; for viability, T/C: stronger effect = lower value
# Outline: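 PDC + HUVEC + MSC complex spheroids; POLQ inhibitors ± partner drugs; top conc. at/near clinical Cmax, else 10 microM (SN-38 1 microM), half-log dilutions; 37 degrees C, 5% CO2.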
# 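Note: spheroids exposed to compounds for seven days before readout.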
# 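Throughout, for viability, T/C: 100% = DMSO vehicle control viability.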
smiles,measurement,setting,value
CCCS(=O)(=O)Nc1ccc(F)c(C(=O)c2c[nH]c3ncc(-c4ccc(Cl)cc4)cc23)c1F + Nc1ccc(C#CCN(C(=O)Cc2ncc(C(F)(F)F)cc2C(F)(F)F)c2ccc(F)cc2)nn1,IC50,second compound 0.0316 µM,7.87 µM
same,IC50,second compound 0.1 µM,7.94 µM
same,IC50,second compound 0.316 µM,8.88 µM
same,IC50,second compound 1 µM,8.43 µM
same,IC50,second compound 3.16 µM,8.5 µM
same,IC50,second compound 10 µM,8.29 µM
same,"viability, T/C","second compound 0.0316 µM, first compound 0.0316 µM",66%
same,"viability, T/C","second compound 0.0316 µM, first compound 0.1 µM",72.5%
same,"viability, T/C","second compound 0.0316 µM, first compound 0.316 µM",94.9%
same,"viability, T/C","second compound 0.0316 µM, first compound 1 µM",90.5%
same,"viability, T/C","second compound 0.0316 µM, first compound 3.16 µM",78.2%
same,"viability, T/C","second compound 0.0316 µM, first compound 10 µM",42.5%
same,"viability, T/C","second compound 0.1 µM, first compound 0.0316 µM",79.8%
same,"viability, T/C","second compound 0.1 µM, first compound 0.1 µM",64.4%
same,"viability, T/C","second compound 0.1 µM, first compound 0.316 µM",92.4%
same,"viability, T/C","second compound 0.1 µM, first compound 1 µM",98.2%
same,"viability, T/C","second compound 0.1 µM, first compound 3.16 µM",82%
same,"viability, T/C","second compound 0.1 µM, first compound 10 µM",41.9%
same,"viability, T/C","second compound 0.316 µM, first compound 0.0316 µM",65.4%
same,"viability, T/C","second compound 0.316 µM, first compound 0.1 µM",77%
same,"viability, T/C","second compound 0.316 µM, first compound 0.316 µM",93.4%
same,"viability, T/C","second compound 0.316 µM, first compound 1 µM",103%
same,"viability, T/C","second compound 0.316 µM, first compound 3.16 µM",88.7%
same,"viability, T/C","second compound 0.316 µM, first compound 10 µM",45.9%
same,"viability, T/C","second compound 1 µM, first compound 0.0316 µM",52.6%
same,"viability, T/C","second compound 1 µM, first compound 0.1 µM",68.7%
same,"viability, T/C","second compound 1 µM, first compound 0.316 µM",95.9%
same,"viability, T/C","second compound 1 µM, first compound 1 µM",107%
same,"viability, T/C","second compound 1 µM, first compound 3.16 µM",81%
same,"viability, T/C","second compound 1 µM, first compound 10 µM",44.6%
same,"viability, T/C","second compound 3.16 µM, first compound 0.0316 µM",61.6%
same,"viability, T/C","second compound 3.16 µM, first compound 0.1 µM",66.6%
same,"viability, T/C","second compound 3.16 µM, first compound 0.316 µM",103%
same,"viability, T/C","second compound 3.16 µM, first compound 1 µM",99.6%
same,"viability, T/C","second compound 3.16 µM, first compound 3.16 µM",91.5%
same,"viability, T/C","second compound 3.16 µM, first compound 10 µM",44.3%
same,"viability, T/C","second compound 10 µM, first compound 0.0316 µM",60.9%
same,"viability, T/C","second compound 10 µM, first compound 0.1 µM",69.3%
same,"viability, T/C","second compound 10 µM, first compound 0.316 µM",89.4%
same,"viability, T/C","second compound 10 µM, first compound 1 µM",104%
same,"viability, T/C","second compound 10 µM, first compound 3.16 µM",85.6%
same,"viability, T/C","second compound 10 µM, first compound 10 µM",43.8%
